Results from patent publication US6228872A, “Neurotrophic diamide and carbamate agents” (Bristol-Myers Squibb Company, priority 1999, dated 2001).
Where two headings read alike, the source gives them in different places.

Biological target: FKBP12 (Homo sapiens, UniProt P62942)
Experiment: FKBP12 Rotamase Inhibition Assay
Format: biochemical
Conditions: for inhibition at 10 µM: read-out: % inhib. at 10 μM; for Ki: apparent Ki, 4° C., substrate succinyl-Ala-Leu-Pro-Phe-p-nitroanilide
Experimental: FKBP12 Rotamase Inhibition Assay
The rotamase activity of FKBP-12 was measured by an adaptation of the assay described by Kofron et al. (Biochemistry, 30, pp. 6127-6134 (1991)). The assay was carried out at 4° C. with 1 mg chymotrypsin/mL of assay with succinyl-Ala-Leu-Pro-Phe-p-nitroanilide as the substrate. Chymotrypsin rapidly hydrolyzes the peptide bond on the C-terminal side of the Phe of the trans form of the peptide and releases the chromogenic p-nitroaniline. The rate of the reaction is controlled by the rate of conversion of the cis form of the peptide to the trans-form, the reaction catalyzed by FKBP12. The apparent Ki values for inhibition of the rotamase activity were determined by measuring decreases in the first order rate constant of the reaction catalyzed by FKBP12 as a function of the concentrations of the compounds described herein. Ki is the concentration of the compound that causes 50 percent inhibition of rotamase activity which is indicative of neurite outgrowth activity.

[1] = Table 3, 1 μM, read-out: % rotamase inhib. at 1 μM
[2] = Table 1, 1 μM (values marked *), read-out: % inhib. at 1 μM*
[3] = Table 2, 1 μM (values marked *), read-out: % inhib. at 1 μM*
[4] = Table 4, 1 μM, read-out: % rotamase inhib. at 1 μM

Sequence of FKBP12 (P62942 whole entry, species assumed): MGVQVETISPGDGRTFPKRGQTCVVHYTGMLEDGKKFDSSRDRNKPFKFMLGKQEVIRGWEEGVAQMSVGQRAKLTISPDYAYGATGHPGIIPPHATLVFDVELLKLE

COc1ccc(CCCCN(CCCc2cccnc2)C(=O)OC[C@@H]2CCCN2C(=O)C(F)(F)c2cc(OC)c(OC)c(OC)c2)cc1OC [Example 40, N-(3,4,5-Trimethoxyphenyl)-difluoroacetyl-L-pyrrolidinylmethyl-[N',N'-3-(3-pyridyl)propyl-4-(3,4-dimethoxyphenyl)butylamino]carbamate]
inhibition at 1 µM [1]: 98%

COc1cc(C(F)(F)C(=O)N2CCC[C@H]2COC(=O)N(Cc2ccccc2)Cc2ccccc2)cc(OC)c1OC [Example 24, N-(3,4,5-Trimethoxyphenyl)-difluoroacetyl-L-pyrrolidinylmethyl-[N',N'-dibenzylamino]carbamate]
inhibition at 1 µM [2]: 34%

COc1cc(C(F)(F)C(=O)N2CCC[C@H]2COC(=O)N(CCCCc2cccnc2)CCCc2ccccc2)cc(OC)c1OC [Example 29, N-(3,4,5-Trimethoxyphenyl)-difluoroacetyl-L-pyrrolidinylmethyl-[N',N'-4-(3-pyridyl)butyl-3-phenylpropylamino]carbamate]
inhibition at 1 µM [3]: 80%

COc1cc(C(=O)C(=O)N2CCC[C@H]2COC(=O)N(CCCc2cccnc2)Cc2ccccc2)cc(OC)c1OC [Example 13, N-(3,4,5-Trimethoxyphenyl)oxalyl-L-pyrrolidinylmethyl-[N',N'-3-(3-pyridyl)propyl-benzylamino]carbamate]
inhibition at 10 µM (Table 2): 79%

COc1cc(C(=O)C(=O)N2CCCC[C@H]2CCC(=O)N(CCCc2ccccc2)CCCc2cccnc2)cc(OC)c1OC [Example 20]
inhibition at 1 µM [4]: 0%

COc1cc(C(=O)C(=O)N2CCC[C@H]2COC(=O)N(CCCCc2ccccc2)CCCCc2cccnc2)cc(OC)c1OC [Example 10, N-(3,4,5-Trimethoxyphenyl)oxalyl-L-pyrrolidinylmethyl-[N',N'-4-(3-pyridyl)butyl-4-phenylbutylamino]carbamate]
inhibition at 1 µM [3]: 52%

COc1cc(C(=O)C(=O)N2CCC[C@H]2COC(=O)NCc2cccnc2)cc(OC)c1OC [Example 8, N-(3,4,5-Trimethoxyphenyl)oxalyl-L-pyrrolidinylmethyl-[N'-3-pyridylmethylamino]carbamate]
inhibition at 10 µM (Table 1): 11%

COc1cc(C(F)(F)C(=O)N2CCC[C@H]2COC(=O)N(CCCc2cccnc2)Cc2ccccc2)cc(OC)c1OC [Example 28, N-(3,4,5-Trimethoxyphenyl)-difluoroacetyl-L-pyrrolidinylmethyl-[N',N'-3-(3-pyridyl)propyl-benzylamino]carbamate]
inhibition at 10 µM (Table 2): 99%
Ki (Table 2): 577 nM

COc1cc(C(=O)C(=O)N2CCC[C@H]2CCC(=O)N(CCCc2ccccc2)CCCc2cccnc2)cc(OC)c1OC [Example 21, N,N-(3-Phenylpropyl)-3-(3-pyridyl)propyl-2-[(S)-N'-(3,4,5-trimethoxyphenyl)oxalyl-2-pyrrolidinyl]propionamide]
inhibition at 1 µM [4]: 1%

COc1cc(C(F)(F)C(=O)N2CCC[C@H]2COC(=O)N(CCCc2cccnc2)CCc2cccc(C(F)(F)F)c2)cc(OC)c1OC [Example 34, N-(3,4,5-Trimethoxyphenyl)-difluoroacetyl-L-pyrrolidinylmethyl-[N',N'-3-(3-pyridyl)propyl-2-(3-trifluoromethylphenyl)ethylamino]carbamate]
inhibition at 1 µM [1]: 96%

COc1cc(C(=O)C(=O)N2CCC[C@H]2COC(=O)N(CCCCc2ccccc2)CCCc2cccnc2)cc(OC)c1OC [Example 11, N-(3,4,5-Trimethoxyphenyl)oxalyl-L-pyrrolidinylmethyl-[N',N'-3-(3-pyridyl)propyl-4-phenylbutylamino]carbamate]
inhibition at 10 µM (Table 2): 96%
Ki (Table 2): 537 nM

CC(C)(C)C(=O)C(=O)N1CCC[C@H]1COC(=O)NCCc1ccccc1 [Example 5, N-Trimethylpyruvyl-L-pyrrolidinylmethyl-[N'-2-phenylethylamino]carbamate]
inhibition at 10 µM (Table 1): 0%

COc1cc(CCCN(CCCc2cccnc2)C(=O)OC[C@@H]2CCCN2C(=O)C(F)(F)c2cc(OC)c(OC)c(OC)c2)cc(OC)c1OC [Example 39, N-(3,4,5-Trimethoxyphenyl)-difluoroacetyl-L-pyrrolidinylmethyl-[N',N'-3-(3-pyridyl)propyl-3-(3,4,5-trimethoxyphenyl)propylamino]carbamate]
inhibition at 1 µM [1]: 92%

CC(C)(C)C(=O)C(=O)N1CCC[C@H]1COC(=O)NCc1cccnc1 [Example 4, N-Trimethylpyruvyl-L-pyrrolidinylmethyl-[N'-3-pyridylmethylamino]carbamate]
inhibition at 10 µM (Table 1): 12%

COc1cc(C(F)(F)C(=O)N2CCC[C@H]2COC(=O)N(CCCCc2cccnc2)CCc2ccccc2)cc(OC)c1OC [Example 30, N-(3,4,5-Trimethoxyphenyl)-difluoroacetyl-L-pyrrolidinylmethyl-[N',N'-4-(3-pyridyl)butyl-2-phenylethylamino]carbamate]
inhibition at 10 µM (Table 2): 97%

COc1cc(C(F)(F)C(=O)N2CCC[C@H]2COC(=O)N(CCc2ccccc2)CCc2c[nH]c3ccccc23)cc(OC)c1OC [Example 25, N-(3,4,5-Trimethoxyphenyl)-difluoroacetyl-L-pyrrolidinylmethyi-[N',N'-2-(3-indolyl)ethyl-2-phenylethylamino]carbamate]
inhibition at 1 µM [2]: 11%

COc1cccc(CCCN(CCCc2cccnc2)C(=O)OC[C@@H]2CCCN2C(=O)C(F)(F)c2cc(OC)c(OC)c(OC)c2)c1 [Example 37, N-(3,4,5-Trimethoxyphenyl)-difluoroacetyl-L-pyrrolidinylmethyl-[N',N'-3-(3-pyridyl)propyl-3-(3-methoxyphenyl)propylamino]carbamate]
inhibition at 1 µM [1]: 93%

COc1cc(C(F)(F)C(=O)N2CCC[C@H]2COC(=O)N(CCCc2cccnc2)CCc2ccccc2)cc(OC)c1OC [Example 27, N-(3,4,5-Trimethoxyphenyl)-difluoroacetyl-L-pyrrolidinylmethyl-[N',N'-3-(3-pyridyl)propyl-2-phenylethylamino]carbamate]
inhibition at 10 µM (Table 2): 97%
Ki (Table 2): 234 nM

COc1cccc(CCCN(CCCc2cccnc2)C(=O)OC[C@@H]2CCCN2C(=O)C(=O)c2cc(OC)c(OC)c(OC)c2)c1 [Example 17, N-(3,4,5-Trimethoxyphenyl)oxalyl-L-pyrrolidinylmethyl-[N',N'-3-(3-pyridyl)propyl-3-(3-methoxyphenyl)propylamino]carbamate]
inhibition at 1 µM [1]: 75%

CC(C)(C)C(=O)C(=O)N1CCC[C@H]1COC(=O)N(CCc1ccccc1)Cc1ccccc1 [Example 3, N-Trimethylpyruvyl-L-pyrrolidinylmethyl-[N',N'-2-phenylethyl-benzylamino]carbamate]
inhibition at 10 µM (Table 1): 39%

COc1cc(C(F)(F)C(=O)N2CCCCC2COC(=O)N(CCCc2cccnc2)Cc2ccccc2)cc(OC)c1OC (racemic) [Example 41, N-(3,4,5-Trimethoxyphenyl)-difluoroacetyl-(±)-piperidinylmethyl-[N',N'-3-(3-pyridyl)propyl-benzylamino]carbamate]
inhibition at 1 µM [3]: 11%

COc1cc(C(F)(F)C(=O)N2CCC[C@H]2COC(=O)N(CCCCc2cccnc2)Cc2ccccc2)cc(OC)c1OC [Example 31, N-(3,4,5-Trimethoxyphenyl)-difluoroacetyl-L-pyrrolidinylmethyl-[N',N'-4-(3-pyridyl)butyl-benzylamino]carbamate]
inhibition at 1 µM [3]: 63%
Ki (Table 2): 686 nM

COc1cc(C(=O)C(=O)N2CCC[C@H]2COC(=O)NCCc2ccccc2)cc(OC)c1OC [Example 9, N-(3,4,5-Trimethoxyphenyl)oxalyl-L-pyrrolidinylmethyl-[N'-2-phenylethylamino]carbamate]
inhibition at 10 µM (Table 1): 11%
